Converted amounts (≈) assume the structure as drawn.

For the first assay, the system named is M. tuberculosis H37Rv. Kind of assay: M. tuberculosis H37Rv MIC assay. The class given is cell-based, Mycobacterium tuberculosis.
Conditions: not given
Regarding “2-[N-(Benzoyl)amino]-4-(thiazol-2-yl)thiazole [Compound 92]”, the “MIC, μM (7H9-glucose)” value was greater than 25 µM.

Staying with this assay, now noted: M. tuberculosis H37Rv.
For the compound `O=C(Nc1nc(-c2cnccn2)cs1)c1ccccc1` [Compound 91, 2-[N-(Benzoyl)amino]-4-(pyrazin-2-yl)thiazole], the “antitubercular activity (in words)” value was “inactive”.
On the same count and under the same terms, in the case of “2-[N-(Benzoyl)amino]-4-(thiazol-2-yl)thiazole [Compound 92]” it was “inactive”; in that of `O=C(Nc1nc(-c2ccccc2)cs1)c1ccccc1` [Compound 90, 2-[N-(Benzoyl)amino]-4-(phenyl)thiazole], “obliterates all activity”.

Still in this assay, the particulars now being: M. tuberculosis H37Rv; GAST medium (glycerol and alanine); […].
As for “2-[N-(Benzoyl)amino]-4-(thiazol-2-yl)thiazole [Compound 92]”, the “MIC, μM (GAST)” value was no less than 25 µM.

The assay is the same for the next values; noted with them: Mycobacterium tuberculosis, H37RV, read-out: MIC, μM (7H9-butyrate).
What is called MIC is the least concentration at which growth counts as inhibited. Consider `O=C(Nc1nc(-c2ccccn2)cs1)c1ccccc1O` [Compound 45], for which the MIC is 1.6 to 3.1 µM (≈ 0.476 to 0.922 µg/mL).
The same measure, in the same setting: as for `COc1ccccc1C(=O)Nc1nc(-c2ccccn2)cs1` [Compound 42], the figure is 3.1 to 6.3 µM (≈ 0.965 to 1.96 µg/mL); as for `CC(=O)c1ccc(C(=O)Nc2nc(-c3ccccn3)cs2)cc1` [Compound 48], 0.19 to 0.39 µM (≈ 0.0614 to 0.126 µg/mL).
Still for that read-out and setting: as for `O=C(Nc1nc(-c2ccccn2)cs1)c1ccccc1Cl` [Compound 54], the figure is 0.19 to 0.39 µM (≈ 0.06 to 0.123 µg/mL).
Turning to `Cc1cccc(C(=O)Nc2nc(-c3ccccn3)cs2)c1` [Compound 37], the MIC is 0.049 to 0.098 µM (≈ 0.0145 to 0.0289 µg/mL).
The same measure, in the same setting: in the case of `O=C(Nc1nc(-c2ccccn2)cs1)c1c(F)cccc1Cl` [Compound 66] it was 0.39 to 0.78 µM (≈ 0.13 to 0.26 µg/mL); in that of `Cc1ccccc1C(=O)Nc1nc(-c2ccccn2)cs1` [Compound 36], 0.19 to 0.39 µM (≈ 0.0561 to 0.115 µg/mL).
Still for that read-out and setting: in the case of `COc1ccc(C(=O)Nc2nc(-c3ccccn3)cs2)cc1` [Compound 44] it was 0.19 to 0.39 µM (≈ 0.0592 to 0.121 µg/mL).
Same read-out and setting: as for `O=C(Nc1nc(-c2ccccn2)cs1)c1ccccn1` [Compound 68], the figure is 3.1 to 6.3 µM (≈ 0.875 to 1.78 µg/mL).

Staying with this assay, now noted: Mycobacterium tuberculosis, H37RV, read-out: MIC, μM (7H9-glucose).
Regarding `O=C(Nc1nc(-c2ccccn2)cs1)c1ccccc1O` [Compound 45], the MIC is 1.6 to 3.1 µM (≈ 0.476 to 0.922 µg/mL).
Still for that read-out and setting: in the case of `O=C(Nc1nc(-c2ccccn2)cs1)c1ccccc1F` [Compound 57] it was 1.6 to 3.1 µM (≈ 0.479 to 0.928 µg/mL).
Turning to `O=C(Nc1nc(-c2ccccn2)cs1)c1ccsc1` [Compound 33], the MIC lay in the range of 1.6 to 3.1 µM (≈ 0.46 to 0.891 µg/mL).
Same read-out and setting: in the case of `O=C(Nc1nc(-c2ccccn2)cs1)c1ccccc1[N+](=O)[O-]` [Compound 49] it was 1.6 to 3.1 µM (≈ 0.522 to 1.01 µg/mL); in that of `O=C(Nc1nc(-c2ccccn2)cs1)c1cccc(F)c1` [Compound 58], 0.19 to 0.39 µM (≈ 0.0569 to 0.117 µg/mL); in that of `O=C(Nc1nc(-c2ccccn2)cs1)c1ccc(OCc2ccccc2)cc1` [Compound 41], 0.19 to 0.39 µM (≈ 0.0736 to 0.151 µg/mL).
With `O=C(Nc1nc(-c2ccccn2)cs1)c1cccc([N+](=O)[O-])c1` [Compound 50], the MIC lay within 1.6 to 3.1 µM (≈ 0.522 to 1.01 µg/mL).
The same measure, in the same setting: as for `O=C(Nc1nc(-c2ccccn2)cs1)c1ccc(F)cc1F` [Compound 61], the figure is 0.39 to 0.78 µM (≈ 0.124 to 0.248 µg/mL); as for `O=C(Nc1nc(-c2ccccn2)cs1)c1cccc(Br)c1` [Compound 52], 0.098 to 0.19 µM (≈ 0.0353 to 0.0684 µg/mL).
The same measure, in the same setting: as for `O=C(Nc1nc(-c2ccccn2)cs1)c1ccccc1Cl` [Compound 54], the figure is 0.39 to 0.78 µM (≈ 0.123 to 0.246 µg/mL).
In the case of `O=C(Nc1nc(-c2ccccn2)cs1)c1ccncc1` [Compound 70], the MIC was in the range of 1.6 to 3.1 µM (≈ 0.452 to 0.875 µg/mL).
Same read-out and setting: in the case of `c1ccc(Nc2nc(-c3ccccn3)cs2)nc1` [Compound 17] it was 0.78 to 1.6 µM (≈ 0.198 to 0.407 µg/mL).
Same read-out and setting: as for `Cc1cccc(C(=O)Nc2nc(-c3ccccn3)cs2)c1` [Compound 37], the figure is 0.19 to 0.39 µM (≈ 0.0561 to 0.115 µg/mL); as for `O=C(Nc1nc(-c2ccccn2)cs1)c1cccnc1Cl` [Compound 67], 0.39 to 0.78 µM (≈ 0.124 to 0.247 µg/mL).
The same measure, in the same setting: in the case of `O=C(Nc1nc(-c2ccccn2)cs1)c1ccc(F)c(F)c1` [Compound 64] it was 1.6 to 3.1 µM (≈ 0.508 to 0.984 µg/mL); in that of `CCCC(=O)Nc1nc(-c2ccccn2)cs1` [Compound 21, N-[4-(2-pyridinyl)-1,3-thiazol-2-yl)butyramide], 12 to 25 µM (≈ 2.97 to 6.18 µg/mL).
As to `O=C(Nc1nc(-c2ccccn2)cs1)c1cccc(Cl)c1` [Compound 55, N-(3-Chlorobenzoyl)-4-(2-pyridinyl)-1,3-thiazol-2-amine], the MIC fell in the range of 0.19 to 0.39 µM (≈ 0.06 to 0.123 µg/mL).
On the same count and under the same terms, in the case of `O=C(Nc1nc(-c2ccccn2)cs1)C1CC1` [Compound 25] it was 12 to 25 µM (≈ 2.94 to 6.13 µg/mL).
Consider `COc1cccc(C(=O)Nc2nc(-c3ccccn3)cs2)c1` [Compound 43], for which the MIC fell in the range of 0.19 to 0.39 µM (≈ 0.0592 to 0.121 µg/mL).
The same measure, in the same setting: in the case of `FC(F)(F)c1ccccc1Nc1nc(-c2ccccn2)cs1` [Compound 13] it was 12 to 25 µM (≈ 3.86 to 8.03 µg/mL).
Still for that read-out and setting: as for `O=C(Nc1nc(-c2ccccn2)cs1)c1cccc(OCc2ccccc2)c1` [Compound 40], the figure is 0.39 to 0.78 µM (≈ 0.151 to 0.302 µg/mL).
Consider `O=C(Nc1nc(-c2ccccn2)cs1)c1ccco1` [Compound 30], for which the MIC was in the range of 3.1 to 6.3 µM (≈ 0.841 to 1.71 µg/mL).
In the case of `O=C(Nc1nc(-c2ccccn2)cs1)c1cccs1` [Compound 32], the MIC was 1.6 to 3.1 µM (≈ 0.46 to 0.891 µg/mL).
The same measure, in the same setting: in the case of `O=C(Nc1nc(-c2ccccn2)cs1)c1ccoc1` [Compound 31] it was 3.1 to 6.3 µM (≈ 0.841 to 1.71 µg/mL).
For `CC1CC1C(=O)Nc1nc(-c2ccccn2)cs1` (stereo not shown) [Compound 29], the MIC is 6.3 to 12.5 µM (≈ 1.63 to 3.24 µg/mL).
On the same count and under the same terms, in the case of `O=C(Nc1nc(-c2ccccn2)cs1)c1ccccc1Br` [Compound 51] it was 0.39 to 0.78 µM (≈ 0.14 to 0.281 µg/mL).

Staying with this assay, now noted: relative to 1.
As for `O=C(Nc1nc(-c2ccccn2)cs1)c1ccccc1` [Compound 35, 2-[N-(Benzoyl)amino]-4-(pyridin-2-yl)thiazole], the “fold better MIC than the corresponding N-phenyl 1” value came to 64 fold.

Still in this assay, the particulars now being: relative to 35.
For `O=C(Nc1nc(-c2ccccn2)co1)c1ccccc1` [Compound 82, 2-[N-(Benzoyl)amino]-4-(pyridin-2-yl)oxazole], the “fold loss of potency relative to the parent thiazole 35” value is reported as 16- to 64 fold.
With `O=C(Nc1nc(-c2ccccn2)c[nH]1)c1ccccc1` [Compound 78, 2-[N-(Benzoyl)amino]-4-(pyridin-2-yl)imidazole], the “fold loss of potency relative to the parent thiazole 35” value is 16- to 64 fold.
Still for that read-out and setting: as for `O=C(Nc1cc(-c2ccccn2)cs1)c1ccccc1` [Compound 75, 2-[N-(Benzoyl)amino]-4-(pyridin-2-yl)thiophene], the figure is no less than 64 fold.
Consider `Cc1cccc(C(=O)Nc2nc(-c3ccccn3)cs2)c1` [Compound 37], for which the “fold increase in potency relative to benzoyl 35” value is 2- to 4 fold.

Staying with this assay, now noted: relative to 69.
Take `O=C(Nc1nc(-c2ccccn2)cs1)c1cccnc1Cl` [Compound 67]: the “fold improvement of activity over nicotinoyl 69” value is reported as 8- to 16 fold.

Staying with this assay, now noted: relative to oxazole 82.
For the compound `O=C(Nc1nnc(-c2ccccn2)o1)c1ccccc1F` [Compound 83, 2-[N-(2-Fluorobenzoyl)amino]-5-(pyridin-2-yl)-1,3,4-oxadiazole], the “regain in potency relative to 82” value is reported as 2–4.

The subject of a further assay is Vero cells. Kind of assay: Vero cell cytotoxicity MTT assay. The class given is cell-based, green monkey. The following applies: 72 h, concentration that inhibited 50% viability. (In general: Formazan colour is commonly taken as a measure of viable cells.)
For the compound `O=C(Nc1nc(-c2ccccn2)cs1)c1ccccc1OCc1ccccc1` [Compound 39], the “EC50, μM” value is “insol”.

Another assay relates to Mtb.
Test: not given
The following applies: reported values; cited from earlier work.
With `Fc1ccc(Nc2nc(-c3ccccn3)cs2)cc1` [Compound 12], the “reported MIC (HTS results)” value is 2 µM.
Regarding `FC(F)(F)c1ccccc1Nc1nc(-c2ccccn2)cs1` [Compound 13], the “reported MIC (HTS results)” value is less than 0.3 µM.
Take `Clc1ccc(Nc2nc(-c3ccccn3)cs2)nc1` [Compound 18]: the “reported MIC (HTS results)” value is 0.35 µM.
Take `Cc1cccc(Nc2nc(-c3ccccn3)cs2)n1` [Compound 19]: the “reported MIC (HTS results)” value is 0.35 µM.

The values are drawn from publication PMC3816974 (Bioorganic & medicinal chemistry, 2013).
